Consider three molecules from US10092589B2, “Anti-tumor agent containing anti-tumor platinum complex, and anti-tumor effect enhancer” (Taiho Pharmaceutical Company Limited, priority 2014, dated 2018).

A short description of data set [1]: Carboplatin tolerability in mice with no cancer (Reference Example 3). The conditions noted are these: tail vein, Day 1. In kind it is in vivo, BALB/cA Jcl-nu mice. Here is the method: To BALB/cA Jcl-nu mice with no cancer (5 mice in each group), carboplatin (CBDCA) was administered at 50, 70, 100, 140, or 200 mg/kg/day through the tail vein on Day 1. In the groups treated with the doses of 140 mg/kg/day or more, strong body weight reductions of 20% or more and death cases were observed. The recommended dose of carboplatin for mice was thus 100 mg/kg/day.

Data set [2] deals with human lung cancer cell line (Lu-134). Put plainly: Lu-134 xenograft, FTD·TPI combination drug and carboplatin (Example 2). In kind it is in vivo. The settings on record: Day 29, tail vein Day 1 and Day 8. Here is the method:
(§1) As an index of the anti-tumor effect, the TVs on Days 5, 8, 11, 15, 19, 22, 26, and 29 were calculated in each group. In accordance with the following equation, the relative tumor volume (RTV) to that on Day 0 was calculated and compared with the RTV of the untreated group (control).
(§2) The tumor growth inhibition rate (IR) on Day 29 on the basis of RTV values was calculated in accordance with the following equation. IR(%)=[1−(mean RTV value of treated group)/(mean RTV value of control group)]×100
In a similar manner to that in Example 1, to BALB/cA Jcl-nu mice to which a human lung cancer cell line (Lu-134) had been transplanted, the FTD⋅TPI combination drug or carboplatin alone, or a combination of the two was administered, and enhancement of the anti-tumor effect was examined.
(§3) The FTD⋅TPI combination drug (a mixture of FTD and TPI at a molar ratio of 1:0.5) was prepared for administration at doses of 75 and 150 mg/kg/day in terms of FTD. Carboplatin (Paraplatin inj., Bristol-Myers) was prepared for administration at doses of 50 and 100 mg/kg/day. The FTD⋅TPI combination drug was orally administered on Days 1 to 14 consecutively, and carboplatin was administered through the tail vein on Day 1 and Day 8. In the combination administration groups, the doses and administration schedules of the FTD⋅TPI combination drug and carboplatin were the same as those of the corresponding monotherapy groups. The TV and body weight of each group were measured on Days 4, 8, 11, 15, 19, 22, 26, and 29, and the anti-tumor effect and side effects were evaluated.

A short description of data set [3]: Cisplatin tolerability (body weight) in KM20C-transplanted mice (Reference Example 2). Format: in vivo, BALB/cA Jcl-nu mice. On the procedure: To BALB/cA Jcl-nu mice (8 mice in each group) to which a human colon cancer cell line KM20C had been transplanted, cisplatin was administered through the tail vein on Day 1 and Day 8. At a dose of 7 mg/kg/day, body weight reduction was 20% or less, and this dose was feasible. Accordingly, the recommended dose of cisplatin (CDDP) for mice was 7 mg/kg/day.

The subject of data set [4] is human lung cancer cell line (Lu-134). Put plainly: Lu-134 xenograft, FTD·TPI combination drug and cisplatin (Example 1). Format: in vivo. The conditions noted are these: Day 29, tail vein Day 1 and Day 8. On the procedure:
A human lung cancer cell line (Lu-134) was transplanted to the right chest of 5 to 6-week-old BALB/cA Jcl-nu mice. After the tumor transplantation, the long diameter (mm) and the short diameter (mm) of the tumor were measured, and the tumor volume (TV) was calculated.
The FTD⋅TPI combination drug (a mixture of FTD and TPI at a molar ratio of 1:0.5) was prepared for administration at doses of 75 and 150 mg/kg/day in terms of FTD. Cisplatin (Randa inj., Nippon Kayaku Co., Ltd) was prepared for administration at doses of 3.5 and 7 mg/kg/day. The FTD⋅TPI combination drug was orally administered on Days 1 to 14 consecutively, and cisplatin was administered through the tail vein on Day 1 and Day 8. In the combination administration groups, the doses and administration schedules of the FTD⋅TPI combination drug and cisplatin were the same as those of the corresponding monotherapy groups.
as §1
TV(mm^3)=(long diameter×short diameter^2)/2 RTV=(TV on Day 29)/(TV on Day 0)
as §2
To evaluate body weight reduction as an index of side effects, body weights were measured in each group on each measurement day.

Data set [5] is described as follows: Oxaliplatin tolerability in mice with no cancer (Reference Example 4). In kind it is in vivo, BALB/cA Jcl-nu mice. The settings on record: tail vein, Day 1 and Day 8. Here is the method:
To BALB/cA Jcl-nu mice with no cancer (4 mice in each group), oxaliplatin (l-OHP) was administered at 10, 12, 15, or 22.5 mg/kg/day through the tail vein on Day 1 and Day 8. In the groups treated with the doses of 15 mg/kg/day or more, strong body weight reductions of 20% or more were observed. The recommended dose of oxaliplatin for mice was thus 12 mg/kg/day.

For data set [6], the system named is human colon cancer cell strain (KM20C). Put plainly: KM20C xenograft, FTD·TPI combination drug and oxaliplatin (Example 3-1). Format: in vivo. The settings on record: Day 15, tail vein Day 1 and Day 8. On the procedure: as §1
IR(%)=[1−(mean RTV value of treated group)/(mean RTV value of control group)]×100
In a similar manner to that in Example 1, to BALB/cA Jcl-nu mice to which a human colon cancer cell strain (KM20C) had been transplanted, the FTD⋅TPI combination drug or oxaliplatin alone, or a combination of the two was administered, and enhancement of the anti-tumor effect was examined.
as §3, with “FTD. Oxaliplatin (Eloxatin, Sanofi-Aventis)” for “FTD. Carboplatin (Paraplatin inj., Bristol-Myers)”, “of 6” for “of 50”, “and 12” for “and 100”, “and oxaliplatin” for “and carboplatin”, “4, 7, 10, and” for “4, 8, 11,”, “15,” for “15, 19, 22, 26, and 29,”

Data set [7] relates to human colon cancer cell strain (SW48). Put plainly: SW48 xenograft, FTD·TPI combination drug and oxaliplatin (Example 3-2). In kind it is in vivo. The settings on record: tail vein Day 1 and Day 8; for IR (tumor growth inhibition rate) / RTV (mean ± SD): Day 29. Here is the method: In a similar manner to that in Example 1, to BALB/cA Jcl-nu mice to which a human colon cancer cell strain (SW48) had been transplanted, the FTD⋅TPI combination drug or oxaliplatin alone, or a combination of the two was administered, and enhancement of the anti-tumor effect was examined.
(§4) The FTD⋅TPI combination drug (a mixture of FTD and TPI at a molar ratio of 1:0.5) was prepared for administration at a dose of 150 mg/kg/day in terms of FTD. Oxaliplatin (Eloxatin, Sanofi-Aventis) was prepared for administration at doses of 7 and 12 mg/kg/day. The FTD⋅TPI combination drug was orally administered on Days 1 to 14 consecutively, and oxaliplatin was administered through the tail vein on Day 1 and Day 8. In the combination administration groups, the doses and administration schedules of the FTD⋅TPI combination drug and oxaliplatin were the same as those of the corresponding monotherapy groups. The TV and body weight of each group were measured on Days 3, 7, 11, 15, 18, 22, 25, and 29, and the anti-tumor effect and side effects were evaluated.
The number of days that elapsed until the tumor volume reached 5 times that on Day 0 (RTV5) was determined, and the growth delay effect was evaluated (Cancer Chemother Pharmacol 57: 709-718, 2006; Int J Radiat Oncol Biol Phys 86 (3): 469-76, 2013).

The test system of data set [8] is human gastric cancer cell line (MKN74). The data set is described as follows: MKN74 xenograft, FTD·TPI combination drug and oxaliplatin (Example 3-3). Format: in vivo. The conditions noted are these: tail vein Day 1 and Day 8; for IR (tumor growth inhibition rate) / RTV (mean ± SD): Day 29. Here is the method:
In a similar manner to that in Example 1, to BALB/cA Jcl-nu mice to which a human gastric cancer cell line (MKN74) was transplanted, the FTD⋅TPI combination drug or oxaliplatin alone, or a combination of the two was administered, and enhancement of the anti-tumor effect was examined.
as §4
(§5) The number of days that elapsed until the tumor volume reached 5 times that on Day 0 (RTV5) was determined, and the growth delay effect was evaluated.

The test system of data set [9] is human gastric cancer cell line (MKN74/5-FU), 5-FU resistant. Put plainly: MKN74/5-FU xenograft, FTD·TPI combination drug and oxaliplatin (Example 3-4). Format: in vivo. The conditions noted are these: tail vein Day 1 and Day 8; for IR (tumor growth inhibition rate) / RTV (mean ± SD): Day 29. On the procedure: In a similar manner to that in Example 1, to BALB/cA Jcl-nu mice to which a human gastric cancer cell line (MKN74/5-FU) that is a 5-FU resistant cell line had been transplanted, the FTD⋅TPI combination drug or oxaliplatin alone, or a combination of the two was administered, and enhancement of the anti-tumor effect was examined.
as §4, §5

Molecules are shown by their SMILES. Marks after values point to notes of the source that are not given here. Some results are limits rather than exact numbers.

`N.N.O=C([O-])C1(C(=O)[O-])CCC1.[Pt+2]` [Carboplatin (CBDCA), cis-diammine (1,1-cyclobutanedicarboxylato)-platinum (II)]: in [1] (doses of 140 mg/kg/day or more), the body weight reductions is no less than 20% and the death entry is “death cases”. In data set [1], the “recommended dose for mice” value is 100 mg/kg/day. Moreover, in [2] (50 mg/kg/day), the “IR (tumor growth inhibition rate)” value came to 25.3% and the “RTV (mean ± SD)” value stood at 26.86 ± 2.44. In data set [2] (100 mg/kg/day), the “IR (tumor growth inhibition rate)” value is listed as 57.2% and the “RTV (mean ± SD)” value is on record as 15.40 ± 4.38.

`N.N.[Cl][Pt][Cl]` [Cisplatin (CDDP), (SP-4-2)-diamminedichloroplatinum] showed a body weight reduction in data set [3] (7 mg/kg/day, tail vein Day 1 and Day 8) of no more than 20%. Also, the “recommended dose for mice” value in data set [3] (tail vein, Day 1 and Day 8) is recorded as 7 mg/kg/day. In [4] (3.5 mg/kg/day), the “IR (tumor growth inhibition rate)” value came to 21.0% and the “RTV (mean ± SD)” value is recorded as 29.12 ± 2.79. For the same molecule, in [4] (7.0 mg/kg/day), the “IR (tumor growth inhibition rate)” value is on record as 49.6% and the “RTV (mean ± SD)” value is on record as 18.56 ± 4.64.

`O=C1[O][Pt]2([NH][C@@H]3CCCC[C@H]3[NH]2)[O]C1=O` [Oxaliplatin (l-OHP), [(1R,2R)-cyclohexane-1,2-diamine](ethanedioato-O,O′)platinum(II)] returned a body weight reductions in data set [5] (doses of 15 mg/kg/day or more) of no less than 20%. For the same molecule, in data set [5], the “recommended dose for mice” value was 12 mg/kg/day. The “IR (tumor growth inhibition rate)” value in [6] (6 mg/kg/day) was 36.4%; in data set [6] (12 mg/kg/day), 55.0%; in data set [7] (7 mg/kg/day), 22.1%; in data set [7] (12 mg/kg/day) it was 36.7%; in data set [8] (7 mg/kg/day) it was 20.7%; in data set [8] (12 mg/kg/day), 35.8%. Also, the “IR (tumor growth inhibition rate)” value in data set [9] (7 mg/kg/day) amounted to 33.7%; in data set [9] (12 mg/kg/day), 40.5%. The “RTV (mean ± SD)” value in data set [6] (6 mg/kg/day) is 6.99 ± 0.32; in data set [6] (12 mg/kg/day), 4.94 ± 0.53; in [7] (7 mg/kg/day), 47.63 ± 4.33; in data set [7] (12 mg/kg/day), 38.72 ± 3.69*^,#; in data set [8] (7 mg/kg/day), 12.67 ± 0.74; in data set [8] (12 mg/kg/day), 10.25 ± 0.87. The “RTV (mean ± SD)” value came out at 11.23 ± 1.60 in data set [9] (7 mg/kg/day) and 10.08 ± 1.77 in data set [9] (12 mg/kg/day). In addition, the “RTV5 (the period, RTV reaches 5)” value is 8.9 ± 0.4 days in data set [7] (7 mg/kg/day); 10.0 ± 0.8^$ days in data set [7] (12 mg/kg/day); 15.8 ± 0.6^$ days in data set [8] (7 mg/kg/day); 18.5 ± 0.8^$ days in data set [8] (12 mg/kg/day); 18.6 ± 1.4^$ days in data set [9] (7 mg/kg/day); 20.1 ± 1.3^$ days in data set [9] (12 mg/kg/day).
